Measurements: US8975400B2, “2,3-dihydroimidazo[1, 2-c] pyrimidin-5(1 H)-one compounds use as LP-PLA2 inhibitors” (Glaxo Group Limited, priority 2011, dated 2015)
Structures can show the parent of a compound that is named as a salt.

How the values were obtained:
[1] = target: T1, recombinant human Lp-PLA2 (Homo sapiens, UniProt Q13093); assay: Recombinant human Lp-PLA2 assay (rhLp-PLA2, PED6 assay); assay type: biochemical; conditions: recombinant human Lp-PLA2, PED6 substrate; upper limit for pIC50 in this assay is 9.3
T1 sequence (Q13093 22-441): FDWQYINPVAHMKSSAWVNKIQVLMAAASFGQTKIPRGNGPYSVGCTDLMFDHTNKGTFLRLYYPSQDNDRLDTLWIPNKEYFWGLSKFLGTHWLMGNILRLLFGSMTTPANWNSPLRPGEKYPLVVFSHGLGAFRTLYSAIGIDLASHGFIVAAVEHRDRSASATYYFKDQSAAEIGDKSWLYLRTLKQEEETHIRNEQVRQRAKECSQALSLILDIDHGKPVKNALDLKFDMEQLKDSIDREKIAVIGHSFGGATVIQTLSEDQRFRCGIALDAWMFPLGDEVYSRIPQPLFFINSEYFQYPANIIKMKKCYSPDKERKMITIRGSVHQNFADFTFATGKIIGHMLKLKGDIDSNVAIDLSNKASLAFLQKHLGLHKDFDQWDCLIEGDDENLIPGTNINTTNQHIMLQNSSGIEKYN
Method in brief: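 Compound preincubated 30 min with rhLp-PLA2 (4 nM or 110 pM) in 50 mM HEPES pH 7.4, 150 mM NaCl, 1 mM CHAPS, then PED6 substrate (4 μM or 5 μM) added. After 20 min at room temperature protected from light, fluorescence read at ex 480/em 540. pIC50 derived from serial-dilution curves.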

Lp-PLA2 in human plasma = target: T2, Lp-PLA2 in human plasma (Homo sapiens, UniProt Q13093); assay: Lp-PLA2 human plasma assay (Thio-PAF assay); assay type: biochemical; conditions: pooled human plasma, 2-thio-PAF substrate; read-out: pIC50 in the thio-PAF assay (converted)
T2 construct: This assay may detect the activity of Lp-PLA2 in human plasma; from tissue; host or cells: pooled human plasma
T2 sequence (Q13093 22-441): T1 sequence (Q13093 22-441)
Method in brief: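 Pooled human plasma preincubated 30 min with serially diluted compounds, then 2-thio-PAF substrate with CPM and NEM added in 50 mM HEPES pH 7.4, 150 mM NaCl, 1 mM CHAPS. TFA-quenched after 2 min, 40 min at RT, fluorescence ex 380/em 485; pIC50 from curve fit.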

IC50 [1] | IC50 (Lp-PLA2 in human plasma) | Compound
≤ 1 nM | ≤ 100 nM | CN1CCn2c1cc(OCc1ccc(Oc3ccc(Cl)c(C(F)(F)F)c3)c(F)c1)nc2=O [Example E85, 7-((4-(4-chloro-3-(trifluoromethyl)phenoxy)-3-fluorobenzyl)oxy)-1-methyl-2,3-dihydroimidazo[1,2-c]pyrimidin-5(1H)-one]
≤ 10 nM | ≤ 1000 nM | CN1CCn2c1cc(OCc1ccc(Oc3ccc(C(F)(F)F)cn3)c(C#N)c1)nc2=O [Example E35, 5-(((1-methyl-5-oxo-1,2,3,5-tetrahydroimidazo[1,2-c]pyrimidin-7-yl)oxy)methyl)-2-((5-(trifluoromethyl)pyridin-2-yl)oxy)benzonitrile, trifluoroacetic acid salt]
≤ 10 nM | ≤ 1000 nM | CN1CCn2c1cc(OCc1ccc(Oc3ccc(C(F)(F)F)nc3)c(F)c1)nc2=O [Example E3, 7-((3-fluoro-4-((6-(trifluoromethyl)pyridin-3-yl)oxy)benzyl)oxy)-1-methyl-2,3-dihydroimidazo[1,2-c]pyrimidin-5(1H)-one]
≤ 1 nM | ≤ 100 nM | CN1CCn2c1cc(OCc1ccc(Oc3ccc(F)c(C(F)(F)F)c3)c(F)c1)nc2=O [Example E45, 7-((3-fluoro-4-(4-fluoro-3-(trifluoromethyl)phenoxy)benzyl)oxy)-1-methyl-2,3-dihydroimidazo[1,2-c]pyrimidin-5(1H)-one, trifluoroacetic acid salt]
≤ 10 nM | ≤ 1000 nM | CN1CCn2c1cc(OCc1ccc(Oc3ccc(F)c(C#N)c3)c(F)c1)nc2=O [Example 139, 2-fluoro-5-(2-fluoro-4-(((1-methyl-5-oxo-1,2,3,5-tetrahydroimidazo[1,2-c]pyrimidin-7-yl)oxy)methyl)phenoxy)benzonitrile]
≤ 10 nM | ≤ 100 nM | N#Cc1cc(COc2cc3n(c(=O)n2)CCN3)ccc1Oc1ccc(Cl)c(C(F)(F)F)c1 [Example 96, 2-(4-chloro-3-(trifluoromethyl)phenoxy)-5-(((5-oxo-1,2,3,5-tetrahydroimidazo[1,2-c]pyrimidin-7-yl)oxy)methyl)benzonitrile]
≤ 1 nM | ≤ 100 nM | CN1CCn2c1cc(OCc1cc(F)c(Oc3cccc(C(F)(F)F)c3)c(F)c1)nc2=O [Example 102, 7-((3,5-difluoro-4-(3-(trifluoromethyl)phenoxy)benzyl)oxy)-1-methyl-2,3-dihydroimidazo[1,2-c]pyrimidin-5(1H)-one]
≤ 10 nM | ≤ 100 nM | N#Cc1cc(COc2cc3n(c(=O)n2)CCN3)ccc1Oc1ccnc(C(F)(F)F)c1 [Example 91, 5-(((5-oxo-1,2,3,5-tetrahydroimidazo[1,2-c]pyrimidin-7-yl)oxy)methyl)-2-((2-(trifluoromethyl)pyridin-4-yl)oxy)benzonitrile]
0.631 nM | ≤ 100 nM | N#Cc1cc(COc2cc3n(c(=O)n2)CCN3)ccc1Oc1ccc(C(F)(F)F)c(F)c1 [Example E65, 2-(3-fluoro-4-(trifluoromethyl)phenoxy)-5-(((5-oxo-1,2,3,5-tetrahydroimidazo[1,2-c]pyrimidin-7-yl)oxy)methyl)benzonitrile]
≤ 10 nM | ≤ 100 nM | N#Cc1ccc(Oc2ccc(COc3cc4n(c(=O)n3)CCN4)cc2C#N)cc1F [Example E64, 4-(2-cyano-4-(((5-oxo-1,2,3,5-tetrahydroimidazo[1,2-c]pyrimidin-7-yl)oxy)methyl)p-henoxy)-2-fluorobenzonitrile]
≤ 10 nM | ≤ 1000 nM | CN1CCn2c1cc(OCc1ccc(Oc3cc(F)c(F)c(F)c3)c(C#N)c1)nc2=O [Example E38, 5-(((1-methyl-5-oxo-1,2,3,5-tetrahydroimidazo[1,2-c]pyrimidin-7-yl)oxy)methyl)-2-(3,4,5-trifluorophenoxy)benzonitrile, trifluoroacetic acid salt]
2.51 nM | ≤ 100 nM | O=c1nc(OCc2ccc(Oc3ccnc(C(F)(F)F)c3)c(F)c2)cc2n1CCN2 [Example 119, 7-((3-fluoro-4-((2-(trifluoromethyl)pyridin-4-yl)oxy)benzyl)oxy)-2,3-dihydroimidazo[1,2-c]pyrimidin-5(1H)-one]
≤ 1 nM | ≤ 1000 nM | N#Cc1cc(COc2cc3n(c(=O)n2)CCN3)ccc1Oc1ccc(F)c(F)c1 [Example E72, 2-(3,4-difluorophenoxy)-5-(((5-oxo-1,2,3,5-tetrahydroimidazo[1,2-c]pyrimidin-7-yl)oxy)methyl)benzonitrile, trifluoroacetic acid salt]
≤ 10 nM | ≤ 100 nM | CN1CCn2c1cc(OCc1ccc(Oc3cncc(Cl)c3)c(C#N)c1)nc2=O [Example 134, 2-((5-chloropyridin-3-yl)oxy)-5-(((1-methyl-5-oxo-1,2,3,5-tetrahydroimidazo[1,2-c]pyrimidin-7-yl)oxy)methyl)benzonitrile]
≤ 10 nM | ≤ 100 nM | CN1CCn2c1cc(OCc1ccc(Oc3ccc(Cl)c(C#N)c3)c(C#N)c1)nc2=O [Example 114, 2-chloro-5-(2-cyano-4-(((1-methy-5-oxo-1,2,3,5-tetrahydroimidazo[1,2-c]pyrimidin-7-yl)oxy)methyl)phenoxy)benzonitrile]
≤ 10 nM | ≤ 1000 nM | CN1CCn2c1cc(OCc1ccc(Oc3ccc(F)c(Cl)c3)c(F)c1)nc2=O [Example E15, 7-((4-(3-chloro-4-fluorophenoxy)-3-fluorobenzyl)oxy)-1-methyl-2,3-dihydroimida-zo[1,2-c]pyrimidin-5(1H)-one]
≤ 10 nM | ≤ 1000 nM | CN1CCn2c1cc(OCc1ccc(Oc3ccc(F)c(C(F)(F)F)c3)cc1)nc2=O [Example E29, 7-((4-(4-fluoro-3-(trifluoromethyl)phenoxy)benzyl)oxy)-1-methyl-2,3-dihydroimid-azo[1,2-c]pyrimidin-5(1H)-one]
≤ 10 nM | ≤ 1000 nM | CN1CCn2c1cc(OCc1ccc(Oc3cc(F)cc(F)c3)c(C#N)c1)nc2=O [Example 111, 2-(3,5-difluorophenoxy)-5-(((1-methyl-5-oxo-1,2,3,5-tetrahydroimidazo[1,2-c]pyri-midin-7-yl)oxy)methyl)benzonitrile]
≤ 10 nM | ≤ 1000 nM | CN1CCn2c1cc(OCCc1ccc(Oc3ccc(Cl)c(C(F)(F)F)c3)cc1)nc2=O [Example E13, 7-(4-(4-chloro-3-(trifluoromethyl)phenoxy)phenethoxy)-1-methyl-2,3-dihydroimi-dazo[1,2-c]pyrimidin-5(1H)-one]
≤ 1 nM | ≤ 100 nM | CN1CCn2c1cc(OCc1cc(F)c(Oc3ccc(C(F)(F)F)c(F)c3)c(F)c1)nc2=O [Example 140, 7-((3,5-difluoro-4-(3-fluoro-4-(trifluoromethyl)phenoxy)benzyl)oxy)-1-methyl-2,3-dihydroimidazo[1,2-c]pyrimidin-5(I H)-one]
≤ 1 nM | ≤ 1000 nM | N#Cc1cc(COc2cc3n(c(=O)n2)CCN3)ccc1Oc1ccc(F)c(Cl)c1 [Example E76, 2-(3-chloro-4-fluorophenoxy)-5-(((5-oxo-1,2,3,5-tetrahydroimidazo[1,2-c]pyrimidin-7-yl)oxy)methyl)benzonitrile, trifluoroacetic acid salt]
≤ 10 nM | ≤ 1000 nM | CN1CCn2c1cc(OCc1cc(F)c(Oc3cc(F)cc(F)c3)c(F)c1)nc2=O [Example 99, 7-((4-(3,5-difluorophenoxy)-3,5-difluorobenzyl)oxy)-1-methyl-2,3-dihydroimida-zo[1,2-c]pyrimidin-5(1H)-one]
≤ 1 nM | ≤ 100 nM | N#Cc1cc(COc2cc3n(c(=O)n2)CCN3)ccc1Oc1cccc(C(F)(F)F)c1 [Example E67, 5-(((5-oxo-1,2,3,5-tetrahydroimidazo[1,2-c]pyrimidin-7-yl)oxy)methyl)-2-(3-(trifluoromethyl)phenoxy)benzonitrile]
≤ 10 nM | ≤ 100 nM | CN1CCn2c1cc(OCc1ccc(Oc3ccc(C(F)(F)F)nc3)c(C#N)c1)nc2=O [Example E49, 5-(((1-methyl-5-oxo-1,2,3,5-tetrahydroimidazo[1,2-c]pyrimidin-7-yl)oxy)methyl)-2-((6-(trifluoromethyl)pyridin-3-yl)oxy)benzonitrile]
< 0.501 nM | ≤ 100 nM | CN1CCn2c1cc(OCc1ccc(Oc3ccc(C#N)c(C(F)(F)F)c3)c(C#N)c1)nc2=O [Example E78, 4-(2-cyano-4-(((l-methyl-5-oxo-1,2,3,5-tetrahydroimidazo[1,2-c]pyrimidin-7-yl)oxy)methyl)phenoxy)-2-(trifluoromethyl)benzonitrile]
≤ 10 nM | ≤ 100 nM | N#Cc1cc(COc2cc3n(c(=O)n2)CCN3)ccc1Oc1cc(F)cc(C(F)(F)F)c1 [Example 120, 2-(3-fluoro-5-(trifluoromethyl)phenoxy)-5-(((5-oxo-1,2,3,5-tetrahydroimidazo[1,2-c]pyrimidin-7-yl)oxy)methyl)benzonitrile]
